Measured values: patent US9113629B2, “4-amino-6-(4-substituted-phenyl)-picolinates and 6-amino-2-(4-substituted-phenyl)-pyrimidine-4-carboxylates and their use as herbicides” (DOW AGROSCIENCES LLC, priority 2013, dated 2015)

Tests used:
[1] = test system: KCHSC: kochia (Kochia scoparia); assay: Post-emergent Test III, herbicidal activity in wheat and barley; format: in vivo; conditions: for pest or weed control at 35 g/ha / pest or weed control at 70 g/ha / pest or weed control at 140 g/ha: Bassia scoparia, post-emergence, 504 h, read-out: Visual Growth Reduction (%) 21 Days After Application KCHSC; for pest or weed control at 35 g/ha: 35 g ai/ha; for pest or weed control at 70 g/ha: 70 g ai/ha; for pest or weed control at 140 g/ha: 140 g ai/ha; for GR50 KCHSC / GR80 KCHSC: probit analysis, 21 days after application; for GR50 KCHSC: dose for growth reduction of 50 percent; for GR80 KCHSC: dose for growth reduction of 80 percent
In short: (§1)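 Plants at the second to third true-leaf stage, grown in a greenhouse at about 18/17 °C with a 14 h photoperiod, were sprayed post-emergence at 187 L/ha with the high rate and ½× to 1/16× serial dilutions in an acetone/DMSO/crop-oil/surfactant carrier. Injury was rated visually at 21 d on a 0–100% scale, and GR20–GR90 were derived by probit analysis.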

[2] = test system: SETVI: green foxtail (Setaria viridis); assay: as above; format: in vivo; conditions: for pest or weed control at 35 g/ha / pest or weed control at 70 g/ha / pest or weed control at 140 g/ha: Setaria viridis, post-emergence, 504 h, read-out: Visual Growth Reduction (%) 21 Days After Application SETVI; for pest or weed control at 35 g/ha: 35 g ai/ha; for pest or weed control at 70 g/ha: 70 g ai/ha; for pest or weed control at 140 g/ha: 140 g ai/ha; for GR50 SETVI / GR80 SETVI: probit analysis, 21 days after application; for GR50 SETVI: dose for growth reduction of 50 percent; for GR80 SETVI: dose for growth reduction of 80 percent
In short: as §1

[3] = as above; format: in vivo, Lolium multiflorum, Lolium rigidum; conditions: Lolium multiflorum, post-emergence, 504 h, read-out: Visual Growth Reduction (%) 21 Days After Application LOLSS; for pest or weed control at 35 g/ha: 35 g ai/ha; for pest or weed control at 70 g/ha: 70 g ai/ha; for pest or weed control at 140 g/ha: 140 g ai/ha
In short: as §1

[4] = test system: HORSS: barley, including spring and winter (Hordeum vulgare); assay: as above; format: in vivo; conditions: for pest or weed control at 35 g/ha / pest or weed control at 70 g/ha / pest or weed control at 140 g/ha: Hordeum vulgare, post-emergence, 504 h, read-out: Visual Growth Reduction (%) 21 Days After Application HORSS; for pest or weed control at 35 g/ha: 35 g ai/ha; for pest or weed control at 70 g/ha: 70 g ai/ha; for pest or weed control at 140 g/ha: 140 g ai/ha; for GR20 HORSS: probit analysis, dose for growth reduction of 20 percent, 21 days after application, crop
In short: as §1

[5] = test system: LOLSS: ryegrass including, Italian ryegrass (Lolium multiflorum), rigid ryegrass (Lolium rigidum), annual ryegrass (Lolium multiflorum subsp. Gaudini); assay: as above; format: in vivo; conditions: probit analysis, 21 days after application; for GR50 LOLSS: dose for growth reduction of 50 percent; for GR80 LOLSS: dose for growth reduction of 80 percent
In short: as §1

[6] = test system: TRZSS: wheat, including spring and winter (Triticum aestivum); assay: as above; format: in vivo; conditions: for pest or weed control at 35 g/ha / pest or weed control at 70 g/ha / pest or weed control at 140 g/ha: Triticum aestivum, post-emergence, 504 h, read-out: Visual Growth Reduction (%) 21 Days After Application TRZSS; for pest or weed control at 35 g/ha: 35 g ai/ha; for pest or weed control at 70 g/ha: 70 g ai/ha; for pest or weed control at 140 g/ha: 140 g ai/ha; for GR20 TRZSS: probit analysis, dose for growth reduction of 20 percent, 21 days after application, crop
In short: as §1

[7] = test system: APESV: bentgrass (Apera spica-venti); assay: as above; format: in vivo; conditions: for pest or weed control at 35 g/ha / pest or weed control at 70 g/ha / pest or weed control at 140 g/ha: Apera spica-venti, post-emergence, 504 h, read-out: Visual Growth Reduction (%) 21 Days After Application APESV; for pest or weed control at 35 g/ha: 35 g ai/ha; for pest or weed control at 70 g/ha: 70 g ai/ha; for pest or weed control at 140 g/ha: 140 g ai/ha; for GR50 APESV / GR80 APESV: probit analysis, 21 days after application; for GR50 APESV: dose for growth reduction of 50 percent; for GR80 APESV: dose for growth reduction of 80 percent
In short: as §1

[8] = test system: MATSS: scented mayweed (Matricaria chamomilla), pineappleweed (Matricaria matricarioides); assay: as above; format: in vivo; conditions: for pest or weed control at 35 g/ha / pest or weed control at 70 g/ha / pest or weed control at 140 g/ha: Matricaria chamomilla, post-emergence, 504 h, read-out: Visual Growth Reduction (%) 21 Days After Application MATSS; for pest or weed control at 35 g/ha: 35 g ai/ha; for pest or weed control at 70 g/ha: 70 g ai/ha; for pest or weed control at 140 g/ha: 140 g ai/ha; for GR50 MATSS / GR80 MATSS: probit analysis, 21 days after application; for GR50 MATSS: dose for growth reduction of 50 percent; for GR80 MATSS: dose for growth reduction of 80 percent
In short: as §1

Row | Compound | pest or weed control at 35 g/ha [1] [%] | pest or weed control at 70 g/ha [1] [%] | pest or weed control at 140 g/ha [1] [%] | GR50 KCHSC [1] [g ai/ha] | GR80 KCHSC [1] [g ai/ha] | pest or weed control at 35 g/ha [2] [%] | pest or weed control at 70 g/ha [2] [%] | pest or weed control at 140 g/ha [2] [%] | GR50 SETVI [2] [g ai/ha] | GR80 SETVI [2] [g ai/ha] | pest or weed control at 35 g/ha [3] [%] | pest or weed control at 70 g/ha [3] [%] | pest or weed control at 140 g/ha [3] [%] | pest or weed control at 35 g/ha [4] [%] | pest or weed control at 70 g/ha [4] [%] | pest or weed control at 140 g/ha [4] [%] | GR20 HORSS [4] [g ai/ha] | GR50 LOLSS [5] [g ai/ha] | GR80 LOLSS [5] [g ai/ha] | pest or weed control at 35 g/ha [6] [%] | also measured
1 | Nc1c(F)c(-c2ccc(Br)cc2)nc(C(=O)O)c1Cl [Compound 20] | 95 to 100 | 95 to 100 | 95 to 100 | 2 | 5 | 95 to 100 | 95 to 100 | 95 to 100 | 4 | 10 | 45 to 59 | 60 to 74 | 60 to 74 | 85 to 94 | 95 to 100 | 95 to 100 | 1 | 25 | >140 | 85 to 94 | pest or weed control at 70 g/ha [6]: 85 to 94%; pest or weed control at 140 g/ha [6]: 85 to 94%; GR20 TRZSS [6]: 1 g ai/ha; pest or weed control at 35 g/ha [7]: 85 to 94%; pest or weed control at 70 g/ha [7]: 85 to 94%; pest or weed control at 140 g/ha [7]: 85 to 94%; GR50 APESV [7]: 2 g ai/ha; GR80 APESV [7]: 12 g ai/ha; pest or weed control at 35 g/ha [8]: 95 to 100%; pest or weed control at 70 g/ha [8]: 95 to 100%; pest or weed control at 140 g/ha [8]: 95 to 100%; GR50 MATSS [8]: 1 g ai/ha; GR80 MATSS [8]: 1 g ai/ha
2 | COC(=O)c1nc(-c2ccc(C#N)cc2)c(F)c(N)c1Cl [Compound 142] | 45 to 59 | 60 to 74 | 60 to 74 | 17 | >140 | 0 to 29 | 0 to 29 | 0 to 29 | >140 | >140 | 0 to 29 | 0 to 29 | 0 to 29 | 0 to 29 | 0 to 29 | 0 to 29 | 57 | >140 | >140 | 0 to 29 | pest or weed control at 70 g/ha [6]: 0 to 29%; pest or weed control at 140 g/ha [6]: 45 to 59%; GR20 TRZSS [6]: >140 g ai/ha; pest or weed control at 35 g/ha [7]: 0 to 29%; pest or weed control at 70 g/ha [7]: 0 to 29%; pest or weed control at 140 g/ha [7]: 0 to 29%; GR50 APESV [7]: >140 g ai/ha; GR80 APESV [7]: >140 g ai/ha; pest or weed control at 35 g/ha [8]: 0 to 29%; pest or weed control at 70 g/ha [8]: 0 to 29%; pest or weed control at 140 g/ha [8]: 30 to 44%; GR50 MATSS [8]: >140 g ai/ha; GR80 MATSS [8]: >140 g ai/ha
3 | Nc1c(F)c(-c2ccc(I)cc2)nc(C(=O)O)c1Cl [Compound 45, 4-amino-3-chloro-5-fluoro-6-(4-iodophenyl)picolinic acid] | 85 to 94 | 95 to 100 | 95 to 100 | 2 | 9 | 60 to 74 | 85 to 94 | 95 to 100 | 18 | 52 | 60 to 74 | 75 to 84 | 85 to 94 | 85 to 94 | 85 to 94 | 95 to 100 | 1 | 20 | 69 | 85 to 94 | pest or weed control at 70 g/ha [6]: 85 to 94%; pest or weed control at 140 g/ha [6]: 85 to 94%; GR20 TRZSS [6]: 1 g ai/ha; pest or weed control at 35 g/ha [7]: 85 to 94%; pest or weed control at 70 g/ha [7]: 85 to 94%; pest or weed control at 140 g/ha [7]: 95 to 100%; GR50 APESV [7]: 8 g ai/ha; GR80 APESV [7]: 25 g ai/ha; pest or weed control at 35 g/ha [8]: 85 to 94%; pest or weed control at 70 g/ha [8]: 95 to 100%; pest or weed control at 140 g/ha [8]: 95 to 100%; GR50 MATSS [8]: 2 g ai/ha; GR80 MATSS [8]: 29 g ai/ha
4 | COC(=O)c1nc(-c2ccc(Br)cc2)c(F)c(N)c1Cl [Compound 138, Methyl 4-amino-6-(4-bromophenyl)-3-chloro-5-fluoropicolinate] | 95 to 100 | 95 to 100 | 95 to 100 | 1 | 4 | 85 to 94 | 85 to 94 | 95 to 100 | 8 | 32 | 60 to 74 | 75 to 84 | 85 to 94 | 85 to 94 | 85 to 94 | 95 to 100 | 1 | 20 | 66 | 85 to 94 | pest or weed control at 70 g/ha [6]: 85 to 94%; pest or weed control at 140 g/ha [6]: 85 to 94%; GR20 TRZSS [6]: 1 g ai/ha; pest or weed control at 35 g/ha [7]: 85 to 94%; pest or weed control at 70 g/ha [7]: 85 to 94%; pest or weed control at 140 g/ha [7]: 95 to 100%; GR50 APESV [7]: 2 g ai/ha; GR80 APESV [7]: 12 g ai/ha; pest or weed control at 35 g/ha [8]: 60 to 74%; pest or weed control at 70 g/ha [8]: 85 to 94%; pest or weed control at 140 g/ha [8]: 85 to 94%; GR50 MATSS [8]: 16 g ai/ha; GR80 MATSS [8]: 51 g ai/ha
